This passage reports refractive index results from the NIST ThermoML archive (doi:10.1021/acs.jced.5b00738).

± gives the expanded uncertainty stated by the source.

This data set is described as follows: refractive index (Na D-line) (dimensionless). Conditions: 298.15 K; 101.33 kPa; Liquid; Standard Abbe refractometry.

`O=Cc1ccco1` [2-furaldehyde]: the refractive index stood at 1.52263 ± 0.001.

Turning to `CCC(C)(C)O` [2-methylbutan-2-ol], the refractive index is 1.40219 ± 0.001.

Consider `CC(=O)CC(C)C` [4-methylpentan-2-one], for which the refractive index came out at 1.39327 ± 0.001.

As for `CC(C)=O` [acetone], the refractive index is reported as 1.35553 ± 0.001.

For `O` [water], the refractive index is listed as 1.33249 ± 0.001.

A word on the refractive index: it is the speed of light in vacuum divided by its phase velocity in the sample.
